Test results published in paper PMC12074795, “Synthesis and biological evaluation of esterified anti-inflammatory drugs with ethylene glycol linkers: cytotoxicity, anti-inflammatory and antioxidant properties” (Royal Society Open Science, 2025).

Legend:
[1] = DPPH radical scavenging test; format: biochemical; settings: 517 nm, 30 min
Procedure: (§1) The in vitro antioxidant ability of the compounds synthesized in this work was evaluated using three different assays, including (i) the ABTS radical cation reduction-decolorization test, which uses the technique of Khan et al. consisting of the reduction of the cation radical by an antioxidant through the discoloration measured by absorption at the wavelength of 734 nm; (ii) interaction with the stable free radical DPPH, based on Bassene’s method, in which the scavenging of DPPH radicals is carried out by a colorimetric method consisting of the reduction of the DPPH radical, determined by its absorption at a wavelength of 517 nm; and (iii) the FRAP test according to the protocol of Path Canada, based on the ability of a substance to reduce Fe^3+ ions to Fe^2+ ions, which, in the presence of 1,10-phenanthroline, form a red-orange complex whose optical density can be measured at 505 nm.
The DPPH radical trapping protocol is based on Bassene’s method, modified for colorimetric analysis. DPPH is a stable purple organic nitrogen radical that absorbs light at 517 nm. When an anti-free radical agent is present, DPPH is reduced to a stable yellow compound, indicated by a loss of colour between 470 and 517 nm. A 0.02% DPPH solution was made with ethanol and stored in a sealed jar in the dark. Stock solutions of the synthesized compounds were prepared by dissolving 100 mg of each in 1 ml of DMSO, and the final concentration of DMSO concentration in the first well was 0.5%. These stocks were then diluted to achieve concentrations (500, 250, 125, 62.5, 31.25, 15.625 and 7.8125)/Mi in mM (Mi: molecular weight of each synthetic compound). Each dilution (25 µl) was put to the wells and 75 µl of the DPPH solution (0.02%) were added. Optical densities were measured at 517 nm after 30 min of incubation in the dark. The negative control used DPPH alone, while the positive control used gallic acid treated with solutions of the synthesized compounds at final concentrations (50, 25, 12.5, 6.25, 3.125, 1.5625 and 0.78125)/Mi in mM. Synthesized compounds were also tested alone to assess fluorescence.
Assays were performed in duplicate, and results were averaged. Percentage inhibition (PI), reflecting the antioxidant activity related to the DPPH˙ radical scavenging effect, was calculated using the following formula:
(PI)=Acontrol−Atest/Acontrol×100,
where Acontrol = absorbance of the control sample and Atest = absorbance of the tested sample.
(§2) The percentages of scavenging or 50% reduction were calculated using gallic acid as a standard for 100% reduction. The concentration of radical scavengers needed to neutralize 50% of free radicals, referred to as SC50, was determined using GraphPad Prism 8.0.1 software (244).

[2] = Ferric reducing antioxidant power (FRAP) test; format: biochemical; settings: 505 nm
Procedure: as §1
The Fe^3+ reduction test followed Path Canada’s protocol with some modifications, assessing the reduction of Fe^3+ ions to Fe^2+ ions, which form a red-orange complex with 1,10-phenanthroline, measurable at 505 nm. The colour intensity correlates with the amount of Fe^3+ reduced. Four solutions were prepared: 1.2 mg ml^−1 of Fe^3+ solution (1.2 mg FeCl3 in 1 ml distilled H2O), 0.2% ortho-phenanthroline solution (200 mg powder in 100 ml ethanol), 2 mg ml^−1 of gallic acid solution (2 mg gallic acid in 1 ml distilled H2O) as a positive control, stock and dilute solutions of the synthesized compounds (see §3.2.5.1). In a 96-well microplate, 180 µl distilled H2O was added to the first column and 100 µl to others for dilution. Each compound solution (20 µl at 10 mg ml^−1) was mixed with 25 µl Fe^3+ solution and incubated for 15 min in the dark at room temperature. Afterwards, 50 µl ortho-phenanthroline solution was added, followed by another 15 min incubation. Optical density was measured at 505 nm using a TECAN M200 plate reader. The positive control was treated similarly to the DPPH and ABTS assays.
as §2

[3] = first replicate, read-out: DPPH SC50(1)
[4] = second replicate, read-out: DPPH SC50(2)
[5] = first replicate, read-out: FRAP SC50(1)
[6] = mean of duplicate, read-out: FRAP mean SC50
[7] = second replicate, read-out: FRAP SC50(2)
[8] = mean of duplicate, read-out: DPPH mean SC50

| SMILES | EC50 [1, 3] [mM] | EC50 [1, 4] [mM] | EC50 [2, 5] [mM] | EC50 [2, 6] [mM] | EC50 [2, 7] [mM] | EC50 [1, 8] [mM] |
| --- | --- | --- | --- | --- | --- | --- |
| CC(C)Cc1ccc(C(=O)OCCOC(=O)C(C)c2ccc(CC(C)C)cc2)cc1 (stereo not shown) [Compound 2, 2-((2-(4-isobutylphenyl)propanoyl)oxy)ethyl 4-isobutylbenzoate] | 5.05 | 4.78 | 6.79 | 6.79 | 6.79 | 4.92 |
| CC(C)Cc1ccc(C(C)C(=O)O)cc1 (stereo not shown) [Compound 1, ibuprofen, reference compound] | 9.81 | 10.2 | 12.9 | 13 | 13.2 | 10 |
| O=C(OCCO)c1ccccc1O [Compound 7, 2-hydroxyethyl 2-hydroxybenzoate] | 12.2 | 12.1 | 11 | 10.9 | 10.9 | 12.1 |
| CC(C)Cc1ccc(C(C)C(=O)OCCO)cc1 (stereo not shown) [Compound 3, 2-hydroxyethyl 2-(4-isobutylphenyl)propanoate] | 10.5 | 10.4 | 7.58 | 7.48 | 7.39 | 10.4 |
| CCCCCCCCCCCC(=O)OCCOC(=O)C(C)c1ccc(CC(C)C)cc1 (stereo not shown) [Compound 5a, 2-((2-(4-isobutylphenyl)propanoyl)oxy)ethyl dodecanoate] | 3.5 | 3.53 | 4.66 | 4.67 | 4.67 | 3.52 |

Results, then the compound that gave them:

| EC50 [1, 3] [mM] | EC50 [1, 4] [mM] | EC50 [2, 5] [mM] | EC50 [2, 6] [mM] | EC50 [2, 7] [mM] | EC50 [1, 8] [mM] | SMILES |
| --- | --- | --- | --- | --- | --- | --- |
| 6.61 | 6.46 | 6.73 | 6.69 | 6.66 | – | O=C(OCCOC(=O)c1ccccc1O)c1ccccc1O [Compound 13, Ethane-1,2-diyl bis(2-hydroxybenzoate)] |
| 5.82 | 5.77 | 8.06 | 8.03 | 8 | 5.79 | CCCCCCCCCCCC(=O)OCCOC(=O)c1ccccc1O [DEW4a] |
| 11.1 | 10.9 | 13.8 | 13.7 | 13.6 | 11 | O=C(O)/C=C/c1ccccc1 [Compound 11, cinnamic acid, reference compound] |
| 8.63 | 8.73 | 6.21 | 6.21 | 6.22 | 8.68 | O=C(/C=C/c1ccccc1)OCCOC(=O)c1ccccc1O [Compound 12, (E)-2-(cinnamoyloxy)ethyl 2-hydroxybenzoate] |
| 6.64 | 6.68 | 7.68 | – | 7.27 | 6.13 | CC(C)Cc1ccc(C(C)C(=O)OCCOC(=O)C=Cc2ccccc2)cc1 (stereo not shown) [Compound 14, 2-((2-(4-isobutylphenyl)propanoyl)oxy)ethyl cinnamate] |
